Measured values as given in patent US20080031968A1, “Methods for increasing cellular energy expenditure” (priority 2005, published 2008).

Columns and labels:
wildtype and D2-/- mice = test: Diet-induced obesity in D2-/- mice and littermate controls; assay type: in vivo, mouse
Experimental: (§1) Male C57BL/6J and KK-Ay mice, 6-7 weeks of age, were obtained from Charles River Laboratories France (l'Arbresle, France) and CLEA Japan Inc. (Tokyo, Japan), respectively. […] All mice were maintained in a temperature-controlled (23° C.) facility with a 12 h light/dark cycle and were given free access to food and water. The control and high-fat diet was obtained from UAR (Villemoison surOrge, France). […] GW4064 was suspended in peanut oil and mixed with the high fat diet at a concentration of 180 mg per kg of food. […] The mice were fasted 4 h before harvesting blood for subsequent blood measurements, and tissues for RNA isolation, lipid measurements and histology. Oxygen consumption was measured using the Oxymax apparatus (Columbus Instruments, Columbus, Ohio).
Next, we used mice with a targeted disruption of the D2 gene (D2−/− mice) and littermate controls in a diet-induced obesity study for 50 days.

TGR5 = biological target: T1, TGR5 (Homo sapiens, UniProt Q8TDU6); test: cAMP response element (CRE)-luciferase reporter assay with TGR5; assay type: cell-based; settings: cells co-transfected with TGR5 expression plasmid and CRE-driven luciferase reporter
T1 construct: expressed in transfected cells
T1 sequence (Q8TDU6 1-330): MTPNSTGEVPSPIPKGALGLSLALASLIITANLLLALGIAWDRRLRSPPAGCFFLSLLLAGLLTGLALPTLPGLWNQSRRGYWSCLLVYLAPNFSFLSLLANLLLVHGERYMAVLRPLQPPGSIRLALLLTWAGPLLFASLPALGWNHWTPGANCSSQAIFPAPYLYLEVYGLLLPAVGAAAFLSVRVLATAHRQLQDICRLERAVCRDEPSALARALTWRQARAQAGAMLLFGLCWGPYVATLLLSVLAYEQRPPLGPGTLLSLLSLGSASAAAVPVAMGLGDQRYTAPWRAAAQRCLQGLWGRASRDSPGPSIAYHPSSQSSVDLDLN
From the text: Since a synthetic FXRα agonist was unable to phenocopy the effects of BAs on energy expenditure, we focused our attention on FXRα-independent signaling events stimulated by BAs. […] We used a cAMP response element (CRE)-luciferase reporter assay to confirm that TGR5 is a BA receptor.
We used quantitative RT-PCR to measure the expression of D2 and TGR5 mRNAs in selected mouse tissues.

BAT = test: cAMP levels in BAT of mice fed high fat diet with CA; assay type: in vivo, mouse; settings: mice fed high fat diet with CA vs control mice
Experimental: An OGTT was performed in animals that were fasted overnight. Glucose was administered by gavage at a dose of 2 g/kg. An IPITT was done in 4 h fasted animals. Insulin was injected at a dose of 0.75 U/kg. Glucose quantification was done with the Maxi Kit Glucometer 4 (Bayer Diagnostic, Puteaux, France) or Glucose RTU (bioMérieux Inc., Marcy l'Etoile, France). Plasma insulin concentrations were measured using ELISA (Cristal Chem Inc., Downers Grove, Ill.). Nonesterified fatty acids, triglycerides, ketone bodies, BA and total cholesterol were determined by enzymatic assays (Roche, Mannheim, Germany). cAMP was measured using the cAMP-Screen system (Applied Biosystems, Bedford, Mass.).

HSMM = test: cAMP levels in human skeletal muscle myoblasts; assay type: cell-based; settings: 1 mM IBMX, 30 minutes
Experimental: HSMM were obtained from Cambrex (Walkersville, Md.) and were cultured according to the suppliers instructions. […] For the cAMP measurements, cells were preincubated 12 h in Opti-MEM (Life Technologies, Cergy Pontoise, France), supplemented with 1 mM IBMX. Then medium was changed and cells were incubated for another 1 h in Opti-MEM with 1 mM IBMX, after which the medium was replaced for Opti-MEM with 1 mM IBMX and the indicated compounds. After 30 minutes the cells were lysed for cAMP analysis.

C57BL/6J mice = test: Indirect calorimetry (Oxymax); assay type: in vivo, mouse
Experimental: as §1

mouse SREBP-1c promoter = test: SREBP-1c promoter luciferase reporter assay in McA-RH7777 cells; assay type: cell-based; settings: McA-RH7777 rat hepatoma cells, LXRα transfection and/or LXR and RXR agonists
Experimental: The LXR response elements in pSREBP-1c324-Luc were mutated for promoter analysis using the Quick Change Site-Directed Mutagenesis Kit (Stratagene, La Jolla, Calif., USA).
The rat hepatoma cell line McA-RH7777 was obtained from ATCC (Manassas, Va., USA). […] Transfections were performed in 96-well plates using Lipofectamine 2000 (Invitrogen, Cergy Pontoise, France). Each well contained 64 ng luciferase reporter and 4 ng of β-galactosidase expression plasmid. We transfected 16 ng RXRα, 16 ng LXRα, 16 ng LRH-1, 32 ng SHP expression plasmids, or the corresponding empty expression vectors. After 6 hours of incubation with the DNA-lipofectamine complexes, the transfection medium was exchanged for medium with or without the indicated ligands. Ligands for LXR and RXR were dissolved in ethanol or DMSO and added to the cells in DMEM supplemented with 10% lipoprotein-deficient serum. To suppress SREBP-1c activation by processing, leading to feed-forward induction of SREBP-1c expression, the medium used for the SREBP-1c promoter study was also supplemented with 10 μg/ml cholesterol and 1 μg/ml 25-hydroxycholesterol. Luciferase measurements were normalized to β-galactosidase activity.

C[C@H](CCC(=O)O)[C@H]1CC[C@H]2[C@@H]3[C@H](O)C[C@@H]4C[C@H](O)CC[C@]4(C)[C@H]3C[C@H](O)[C@]12C [CA, cholic acid]
development of obesity (wildtype and D2-/- mice; D2-/- mice, CA added to high fat diet, 50 days): no effect | diet induced obesity (wildtype and D2-/- mice; wildtype mice, CA added to high fat diet, 50 days): prevented diet induced obesity | expression of PGC-1α in BAT (wildtype and D2-/- mice; wildtype mice, CA feeding): significantly induced | luciferase expression (TGR5): increased luciferase expression in a dose-dependent manner | cAMP levels in BAT (BAT): significantly elevated | cAMP levels (HSMM): increased cAMP levels in a dose-dependant fashion | CO2 production and O2 consumption (C57BL/6J mice; high fat diet containing CA vs high fat or normal diet): higher | respiratory quotient (RQ=VCO2/VO2) (C57BL/6J mice; high fat diet supplemented with CA): not affected | increase of SREBP-1c promoter activity (mouse SREBP-1c promoter): attenuated
